Measurements: patent publication US20260306644A1, “ANTIBODY RECRUITING MOLECULES FOR THE TREATMENT OF CORONAVIRUS DISEASE-19” (priority 2023, published 2026)
“And” between values parts separate entries of the source, which are not always exact repeats. Identical values can stand only once.

Legend:
[1] = target: SARS-CoV-2 Spike protein (Severe acute respiratory syndrome coronavirus 2, UniProt P0DTC2); experiment: Ternary binding of SARS-CoV-2 Spike protein (293T cells expressing Spike-GFP, IgG-AF647, flow cytometry); assay type: cell-based; conditions: 293T cells expressing Spike-GFP; IgG-AF647 10 μg/ml; repeat values/batches listed separately; read-out: SARS-CoV-2 Ternary binding EC50
Protocol: 293T cells stably expressing SARS-CoV-2 Spike-GFP protein on their surface were incubated with a concentration range of compound for 30 minutes at 37° C.-5% CO2 in Roswell Park Memorial Institute Medium (RPMI)-5% low IgG serum with 10 μg/ml IgG-Alexa Fluor® 647 (AF647). The cells were washed twice using the same medium, resuspended in phosphate-buffered saline (PBS)-1% bovine serum albumin (BSA), and acquired on Attune™ NxT Flow Cytometer. In some embodiments, mean fluorescence intensity of AF647 as well as […] AF647 positive in GFP positive gate are reported as readouts in this assay.

[2] = target: T1, SARS-CoV-2 Spike A (wild-type) (Severe acute respiratory syndrome coronavirus 2, UniProt P0DTC2); experiment: MSD ACE2 competition assay (inhibition of Spike binding with ACE2, ECL), A (wild-type); conditions: IC50 Wild Type, Wild Type Spike
T1 construct: purchased Meso Scale Diagnostics, LLC V-PLEX SARS-CoV-2 Panel 13 (ACE2) Kit / Panel 23 (ACE2) Kit

CC[C@H](C)[C@H](NC(=O)[C@H](CC(C)C)NC(=O)[C@H](CC(=O)O)NC(=O)[C@H](CO)NC(=O)[C@@H](NC(=O)[C@H](CCCNC(=N)N)NC(=O)[C@H](CCSC)NC(=O)[C@H](CO)NC(=O)[C@H](C)NC(=O)[C@H](CCC(=O)O)NC(=O)[C@H](C)NC(=O)[C@H](Cc1c[nH]cn1)NC(=O)CNC(=O)[C@H](CC(C)C)NC(=O)[C@H](CCC(=O)O)NC(=O)[C@H](CC(=O)O)NC(=O)[C@H](CC(C)C)NC(=O)[C@H](CC(C)C)NC(=O)[C@H](CCCNC(=N)N)NC(=O)[C@H](CCSC)NC(=O)[C@@H](NC(=O)[C@H](CCC(=O)O)NC(=O)[C@H](Cc1ccc(O)cc1)NC(=O)[C@@H](NC(=O)[C@H](CCCCN)NC(=O)[C@H](CCC(N)=O)NC(=O)[C@H](CC(C)C)NC(=O)[C@@H](NC(=O)[C@H](Cc1c[nH]c2ccccc12)NC(=O)[C@H](CCC(=O)O)NC(=O)[C@H](CCCCN)NC(=O)[C@H](CC(=O)O)NC(C)=O)[C@@H](C)CC)[C@@H](C)CC)[C@@H](C)CC)C(C)C)C(=O)N[C@@H](Cc1ccc(O)cc1)C(=O)N[C@@H](CCC(=O)O)C(=O)N[C@@H](Cc1ccccc1)C(=O)N[C@@H](CCSC)C(=O)N[C@@H](CCCCN)C(=O)N[C@@H](CCCCN)C(=O)NCC(=O)O [Compound 103]
EC50 [1]: > 10 nM | IC50 [2]: 6.22 nM

CC[C@H](C)[C@H](NC(=O)[C@H](CC(C)C)NC(=O)[C@H](CC(=O)O)NC(=O)[C@H](CO)NC(=O)[C@@H](NC(=O)[C@H](CCCNC(=N)N)NC(=O)[C@H](CCSC)NC(=O)[C@H](CO)NC(=O)[C@H](C)NC(=O)[C@H](CCC(=O)O)NC(=O)[C@H](C)NC(=O)[C@H](Cc1c[nH]cn1)NC(=O)CNC(=O)[C@H](CC(C)C)NC(=O)[C@H](CCC(=O)O)NC(=O)[C@H](CC(=O)O)NC(=O)[C@H](CC(C)C)NC(=O)[C@H](CC(C)C)NC(=O)[C@H](CCCNC(=N)N)NC(=O)[C@H](CCSC)NC(=O)[C@@H](NC(=O)[C@H](CCC(=O)O)NC(=O)[C@H](Cc1ccc(O)cc1)NC(=O)[C@@H](NC(=O)[C@H](CCCCN)NC(=O)[C@H](CCC(N)=O)NC(=O)[C@H](CC(C)C)NC(=O)[C@@H](NC(=O)[C@H](Cc1c[nH]c2ccccc12)NC(=O)[C@H](CCC(=O)O)NC(=O)[C@H](CCCCN)NC(=O)[C@@H](N)CC(=O)O)[C@@H](C)CC)[C@@H](C)CC)[C@@H](C)CC)C(C)C)C(=O)N[C@@H](Cc1ccc(O)cc1)C(=O)N[C@@H](CCC(=O)O)C(=O)N[C@@H](Cc1ccccc1)C(=O)N[C@@H](CCSC)C(=O)N[C@@H](CCCCN)C(=O)N[C@@H](CCCCN)C(=O)NCC(=O)NCC(=O)NCC(=O)NCC(=O)N[C@@H](CC(=O)O)C(=O)N[C@H]1CSSC[C@@H](C(=O)N[C@H](C(=O)O)[C@@H](C)O)NC(=O)[C@H](Cc2c[nH]c3ccccc23)NC(=O)[C@H](C(C)C)NC(=O)[C@H](CC(C)C)NC(=O)[C@H](CCC(=O)O)NC(=O)CNC(=O)[C@H](CC(C)C)NC(=O)[C@H](Cc2c[nH]cn2)NC(=O)[C@H](Cc2c[nH]c3ccccc23)NC(=O)[C@H](C)NC1=O [Compound 106]
EC50 [1]: 2.6 nM and 2.5 nM | IC50 [2]: 22.1 nM

CC[C@H](C)[C@H](NC(=O)[C@H](CC(C)C)NC(=O)[C@H](CC(=O)O)NC(=O)[C@H](CO)NC(=O)[C@@H](NC(=O)[C@H](CCCNC(=N)N)NC(=O)[C@H](CCSC)NC(=O)[C@H](CO)NC(=O)[C@H](C)NC(=O)[C@H](CCC(=O)O)NC(=O)[C@H](C)NC(=O)[C@H](Cc1c[nH]cn1)NC(=O)CNC(=O)[C@H](CC(C)C)NC(=O)[C@H](CCC(=O)O)NC(=O)[C@H](CC(=O)O)NC(=O)[C@H](CC(C)C)NC(=O)[C@H](CC(C)C)NC(=O)[C@H](CCCNC(=N)N)NC(=O)[C@H](CCSC)NC(=O)[C@@H](NC(=O)[C@H](CCC(=O)O)NC(=O)[C@H](Cc1ccc(O)cc1)NC(=O)[C@@H](NC(=O)[C@H](CCCCN)NC(=O)[C@H](CCC(N)=O)NC(=O)[C@H](CC(C)C)NC(=O)[C@@H](NC(=O)[C@H](Cc1c[nH]c2ccccc12)NC(=O)[C@H](CCC(=O)O)NC(=O)[C@H](CCCCN)NC(=O)[C@H](CC(=O)O)NC(C)=O)[C@@H](C)CC)[C@@H](C)CC)[C@@H](C)CC)C(C)C)C(=O)N[C@@H](Cc1ccc(O)cc1)C(=O)N[C@@H](CCC(=O)O)C(=O)N[C@@H](Cc1ccccc1)C(=O)N[C@@H](CCSC)C(=O)N[C@@H](CCCCN)C(=O)N[C@@H](CCCCN)C(=O)NCC(=O)NCC(=O)NCC(=O)NCC(=O)N[C@@H](CC(=O)O)C(=O)N[C@H]1CSSC[C@@H](C(=O)N[C@H](C(=O)O)[C@@H](C)O)NC(=O)[C@H](Cc2c[nH]c3ccccc23)NC(=O)[C@H](C(C)C)NC(=O)[C@H](CC(C)C)NC(=O)[C@H](CCC(=O)O)NC(=O)CNC(=O)[C@H](CC(C)C)NC(=O)[C@H](Cc2c[nH]cn2)NC(=O)[C@H](Cc2c[nH]c3ccccc23)NC(=O)[C@H](C)NC1=O [Compound 107]
EC50 [1]: 3.1 nM and 4.5 nM | IC50 [2]: 36.2 nM

CC[C@H](C)[C@H](NC(=O)[C@H](CC(C)C)NC(=O)[C@H](CC(=O)O)NC(=O)[C@H](CO)NC(=O)[C@@H](NC(=O)[C@H](CCCNC(=N)N)NC(=O)[C@H](CCSC)NC(=O)[C@H](CO)NC(=O)[C@H](C)NC(=O)[C@H](CCC(=O)O)NC(=O)[C@H](C)NC(=O)[C@H](Cc1c[nH]cn1)NC(=O)CNC(=O)[C@H](CC(C)C)NC(=O)[C@H](CCC(=O)O)NC(=O)[C@H](CC(=O)O)NC(=O)[C@H](CC(C)C)NC(=O)[C@H](CC(C)C)NC(=O)[C@H](CCCNC(=N)N)NC(=O)[C@H](CCSC)NC(=O)[C@@H](NC(=O)[C@H](CCC(=O)O)NC(=O)[C@H](Cc1ccc(O)cc1)NC(=O)[C@@H](NC(=O)[C@H](CCCCN)NC(=O)[C@H](CCC(N)=O)NC(=O)[C@H](CC(C)C)NC(=O)[C@@H](NC(=O)[C@H](Cc1c[nH]c2ccccc12)NC(=O)[C@H](CCC(=O)O)NC(=O)[C@H](CCCCN)NC(=O)[C@H](CC(=O)O)NC(C)=O)[C@@H](C)CC)[C@@H](C)CC)[C@@H](C)CC)C(C)C)C(=O)N[C@@H](Cc1ccc(O)cc1)C(=O)N[C@@H](CCC(=O)O)C(=O)N[C@@H](Cc1ccccc1)C(=O)N[C@@H](CCSC)C(=O)N[C@@H](CCCCN)C(=O)N[C@@H](CCCCN)C(=O)NCC(=O)NCCOCCOCCOCCOCCOCCOCCOCCOCCC(=O)NCCOCCOCCOCCOCCOCCOCCOCCOCCNC(=O)[C@@H]1CSCC(=O)N[C@@H](C)C(=O)N[C@@H](CO)C(=O)N[C@@H](Cc2ccc(O)cc2)C(=O)N[C@@H](Cc2c[nH]cn2)C(=O)N[C@@H](CC(C)C)C(=O)NCC(=O)N[C@@H](CCC(=O)O)C(=O)N[C@@H](CC(C)C)C(=O)N[C@@H](C(C)C)C(=O)N[C@@H](Cc2c[nH]c3ccccc23)C(=O)N2Cc3ccccc3C[C@H]2C(=O)NC(C)(C)C(=O)N1 [Compound 160]
EC50 [1]: 1.4 nM and 2.2 nM

CC[C@H](C)[C@H](NC(=O)[C@H](CC(C)C)NC(=O)[C@H](CC(=O)O)NC(=O)[C@H](CO)NC(=O)[C@@H](NC(=O)[C@H](CCCNC(=N)N)NC(=O)[C@H](CCSC)NC(=O)[C@H](CO)NC(=O)[C@H](C)NC(=O)[C@H](CCC(=O)O)NC(=O)[C@H](C)NC(=O)[C@H](Cc1c[nH]cn1)NC(=O)CNC(=O)[C@H](CC(C)C)NC(=O)[C@H](CCC(=O)O)NC(=O)[C@H](CC(=O)O)NC(=O)[C@H](CC(C)C)NC(=O)[C@H](CC(C)C)NC(=O)[C@H](CCCNC(=N)N)NC(=O)[C@H](CCSC)NC(=O)[C@@H](NC(=O)[C@H](CCC(=O)O)NC(=O)[C@H](Cc1ccc(O)cc1)NC(=O)[C@@H](NC(=O)[C@H](CCCCN)NC(=O)[C@H](CCC(N)=O)NC(=O)[C@H](CC(C)C)NC(=O)[C@@H](NC(=O)[C@H](Cc1c[nH]c2ccccc12)NC(=O)[C@H](CCC(=O)O)NC(=O)[C@H](CCCCN)NC(=O)[C@H](CC(=O)O)NC(C)=O)[C@@H](C)CC)[C@@H](C)CC)[C@@H](C)CC)C(C)C)C(=O)N[C@@H](Cc1ccc(O)cc1)C(=O)N[C@@H](CCC(=O)O)C(=O)N[C@@H](Cc1ccccc1)C(=O)N[C@@H](CCSC)C(=O)N[C@@H](CCCCN)C(=O)N[C@@H](CCCCN)C(=O)NCC(=O)NCCOCCOCCOCCOCCOCCOCCOCCOCCNC(=O)[C@@H]1CSCC(=O)N[C@@H](C)C(=O)N[C@@H](CO)C(=O)N[C@@H](Cc2ccc(O)cc2)C(=O)N[C@@H](Cc2c[nH]cn2)C(=O)N[C@@H](CC(C)C)C(=O)NCC(=O)N[C@@H](CCC(=O)O)C(=O)N[C@@H](CC(C)C)C(=O)N[C@@H](C(C)C)C(=O)N[C@@H](Cc2c[nH]c3ccccc23)C(=O)N2Cc3ccccc3C[C@H]2C(=O)NC(C)(C)C(=O)N1 [Compound 161]
EC50 [1]: 2.2 nM

CC[C@H](C)[C@H](NC(=O)[C@H](CC(C)C)NC(=O)[C@H](CC(=O)O)NC(=O)[C@H](CO)NC(=O)[C@@H](NC(=O)[C@H](CCCNC(=N)N)NC(=O)[C@H](CCSC)NC(=O)[C@H](CO)NC(=O)[C@H](C)NC(=O)[C@H](CCC(=O)O)NC(=O)[C@H](C)NC(=O)[C@H](Cc1c[nH]cn1)NC(=O)CNC(=O)[C@H](CC(C)C)NC(=O)[C@H](CCC(=O)O)NC(=O)[C@H](CC(=O)O)NC(=O)[C@H](CC(C)C)NC(=O)[C@H](CC(C)C)NC(=O)[C@H](CCCNC(=N)N)NC(=O)[C@H](CCSC)NC(=O)[C@@H](NC(=O)[C@H](CCC(=O)O)NC(=O)[C@H](Cc1ccc(O)cc1)NC(=O)[C@@H](NC(=O)[C@H](CCCCN)NC(=O)[C@H](CCC(N)=O)NC(=O)[C@H](CC(C)C)NC(=O)[C@@H](NC(=O)[C@H](Cc1c[nH]c2ccccc12)NC(=O)[C@H](CCC(=O)O)NC(=O)[C@H](CCCCN)NC(=O)[C@H](CC(=O)O)NC(=O)CCOCCOCCOCCOCCNC(=O)CCCC[C@@H]1SC[C@@H]2NC(=O)N[C@@H]21)[C@@H](C)CC)[C@@H](C)CC)[C@@H](C)CC)C(C)C)C(=O)N[C@@H](Cc1ccc(O)cc1)C(=O)N[C@@H](CCC(=O)O)C(=O)N[C@@H](Cc1ccccc1)C(=O)N[C@@H](CCSC)C(=O)N[C@@H](CCCCN)C(=O)N[C@@H](CCCCN)C(=O)NCC(=O)O [Compound 209]
EC50 [1]: 1.1 nM
